Experimental data published in article PMC7339578, “Multiple circulating alkaloids and saponins from intravenous Kang-Ai injection inhibit human cytochrome P450 and UDP-glucuronosyltransferase isozymes: potential drug–drug interactions” (Chinese Medicine, 2020).
Where “and” joins values, the source holds several entries; their conditions need not be identical. Identical values can stand only once. Like-named read-outs stand apart in the source and are kept apart here.

Legend:
[1] = Plasma pharmacokinetics in rats after a 30-min intravenous infusion of Kang-Ai injection; assay type: in vivo, Sprague–Dawley rats
Outline: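 Fasted male Sprague–Dawley rats (250 ± 20 g) got a single 30-min tail-vein infusion of Kang-Ai injection at 6 mL/kg. Jugular blood was sampled from 5 min to 12 h for plasma. Parameters came from non-compartmental analysis (trapezoidal AUC), n = 3.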

[2] = Urinary (renal) excretion in rats after a 30-min infusion of Kang-Ai injection; assay type: in vivo, Sprague–Dawley rats; details: for CL renal: male, Sprague-Dawley, rat; for fe-U,0–12h (fraction of dose excreted into urine): rat urine 0–12 h; for fraction of dose excreted unchanged via renal plus hepatobiliary excretion (sum of fe-U and fe-B): rat urine + bile, 0–12 h
Outline: (§1)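 Urine collected in metabolic cages at 0–4, 4–8, 8–12 h and bile at 0–3, 3–6, 6–9, 9–12 h after infusion start, weighed and frozen at −80 °C. Non-compartmental analysis; CLR and CLB as cumulative urinary or biliary amount divided by plasma AUC0-∞, fe-U and fe-B as cumulative amount/dose; mean ± SD (n = 3).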

[3] = Biliary (hepatobiliary) excretion in rats after a 30-min infusion of Kang-Ai injection; assay type: in vivo, Sprague–Dawley rats; details: for fe-B,0–12h (fraction of dose excreted into bile): rat bile 0–12 h
Outline: as §1

[4] = Protein binding assay (equilibrium dialysis); assay type: in vitro ADME, rat
Outline: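 Rat plasma binding was measured by equilibrium dialysis (12–14 kDa cutoff membrane), equilibrated 24 h at 37 °C and 55 rpm. Alkaloids were tested at 2 μmol/L and saponins at 4 μmol/L. Unbound fraction = dialysate concentration/post-dialysis plasma concentration × 100%.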

CYP1A2 = molecular target: T1, CYP1A2 (Homo sapiens, UniProt P05177); assay: Inhibition of recombinant CYP1A2 (probe phenacetin); assay type: in vitro ADME
T1 construct: purchased Corning Biosciences 456203
T1 sequence (P05177 1-516): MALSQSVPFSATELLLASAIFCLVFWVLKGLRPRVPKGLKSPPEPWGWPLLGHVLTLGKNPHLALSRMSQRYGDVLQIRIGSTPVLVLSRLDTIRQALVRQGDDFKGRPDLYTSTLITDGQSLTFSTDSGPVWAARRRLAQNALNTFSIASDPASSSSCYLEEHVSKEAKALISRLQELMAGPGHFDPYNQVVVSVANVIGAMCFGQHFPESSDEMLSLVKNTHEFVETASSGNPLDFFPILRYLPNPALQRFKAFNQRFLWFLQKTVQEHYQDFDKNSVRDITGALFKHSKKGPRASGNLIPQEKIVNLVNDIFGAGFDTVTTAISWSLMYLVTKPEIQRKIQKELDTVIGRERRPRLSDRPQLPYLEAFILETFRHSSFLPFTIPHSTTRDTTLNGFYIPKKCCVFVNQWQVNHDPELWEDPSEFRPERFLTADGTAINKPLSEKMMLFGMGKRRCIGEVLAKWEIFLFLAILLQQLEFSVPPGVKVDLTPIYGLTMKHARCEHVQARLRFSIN
Method: (§2) In this study, phenacetin (100 μM), coumarin (100 μM), bupropion (100 μM), paclitaxel (60 μM), tolbutamide (200 μM), mephenytoin (100 μM), chlorzoxazone (200 μM) and nifedipine (40 μM) have been used as the probe substrates for CYP1A2, 2A6, 2B6, 2C8, 2C9, 2C19, 2E1 and 3A4, respectively.

CYP2C9 = CYP2C9 (Homo sapiens, UniProt P11712); assay: Inhibition of recombinant CYP2C9 (probe tolbutamide); assay type: in vitro ADME
Chain of CYP2C9 (P11712 whole entry): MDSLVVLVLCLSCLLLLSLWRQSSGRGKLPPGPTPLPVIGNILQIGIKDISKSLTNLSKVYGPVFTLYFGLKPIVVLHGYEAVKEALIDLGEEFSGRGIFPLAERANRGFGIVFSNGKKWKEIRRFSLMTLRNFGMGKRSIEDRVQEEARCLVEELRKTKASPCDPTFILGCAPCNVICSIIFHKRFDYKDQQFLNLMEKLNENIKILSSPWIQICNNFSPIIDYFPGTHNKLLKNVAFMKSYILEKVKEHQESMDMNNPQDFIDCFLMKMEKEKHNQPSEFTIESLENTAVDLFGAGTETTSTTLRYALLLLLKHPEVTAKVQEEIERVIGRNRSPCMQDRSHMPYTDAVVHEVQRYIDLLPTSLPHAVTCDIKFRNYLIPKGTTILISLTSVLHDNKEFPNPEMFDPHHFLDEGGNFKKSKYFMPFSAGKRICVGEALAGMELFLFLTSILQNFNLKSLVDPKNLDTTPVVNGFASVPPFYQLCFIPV
Method: as §2

CYP2C19 = CYP2C19 (Homo sapiens, UniProt P33261); assay: Inhibition of recombinant CYP2C19 (probe mephenytoin); assay type: in vitro ADME
Chain of CYP2C19 (P33261 whole entry): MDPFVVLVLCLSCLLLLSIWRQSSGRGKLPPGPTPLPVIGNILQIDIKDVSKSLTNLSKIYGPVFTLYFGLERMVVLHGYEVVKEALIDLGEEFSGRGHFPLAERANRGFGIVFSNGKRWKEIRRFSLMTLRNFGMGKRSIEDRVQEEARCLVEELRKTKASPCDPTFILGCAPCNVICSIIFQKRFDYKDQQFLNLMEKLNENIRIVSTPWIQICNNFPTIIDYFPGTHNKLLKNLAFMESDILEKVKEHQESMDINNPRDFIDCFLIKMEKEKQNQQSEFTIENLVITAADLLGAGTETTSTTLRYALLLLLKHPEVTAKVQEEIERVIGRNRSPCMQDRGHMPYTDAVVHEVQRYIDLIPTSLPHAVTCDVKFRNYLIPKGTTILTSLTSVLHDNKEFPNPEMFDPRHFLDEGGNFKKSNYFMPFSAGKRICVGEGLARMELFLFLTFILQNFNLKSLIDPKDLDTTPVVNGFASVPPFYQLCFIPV
Method: as §2

[5] = male, Sprague-Dawley, plasma, rat, 30-min iv infusion of Kang-Ai injection 6 mL/kg, Table 1 unit, read-out: CLtot, p (converted)
[6] = male, Sprague-Dawley, plasma, rat, 30-min iv infusion of Kang-Ai injection 6 mL/kg, Table 1 unit, read-out: VSS
[7] = male, Sprague-Dawley, rat plasma, 30-min iv infusion of Kang-Ai injection 6 mL/kg, read-out: Cmax
[8] = male, Sprague-Dawley, rat plasma, 30-min iv infusion of Kang-Ai injection 6 mL/kg, read-out: t1/2 (converted)
[9] = urine and plasma, Kang-Ai injection 6 mL/kg iv, read-out: CLR (renal excretory clearance) (converted)
[10] = rat plasma, equilibrium dialysis 24 h, 37 °C, 2 μmol/L alkaloids, 4 μmol/L saponins, read-out: fu-plasma (unbound fraction)
[11] = recombinant isozyme, mean ± SD of triplicate, unit not given (IC50 classes in μM), read-out: IC50 towards CYP1A2
[12] = recombinant isozyme, mean ± SD of triplicate, unit not given (IC50 classes in μM), read-out: IC50 towards CYP2C19
[13] = recombinant isozyme, mean ± SD of triplicate, unit not given (IC50 classes in μM), read-out: IC50 towards CYP2C9
[14] = male, Sprague-Dawley, rat, in vivo, iv

Structure (SMILES)	clearance [1, 5] [mL/min]	Vd [1, 6] [L]	Cmax [1, 7] [µM]	half-life [1, 8] [h]	CL renal [2, 9] [mL/min]	fe-U,0–12h (fraction of dose excreted into urine) ([2]; Kang-Ai injection 6 mL/kg iv)	fraction unbound at 24 h [4, 10]	IC50 (CYP1A2; [11]) [µM]	IC50 (CYP2C19; [12]) [µM]	fraction of dose excreted unchanged via renal plus hepatobiliary excretion (sum of fe-U and fe-B) ([2]; Kang-Ai injection 6 mL/kg iv)	fe-B,0–12h (fraction of dose excreted into bile) ([3]; Kang-Ai injection 6 mL/kg iv)	IC50 (CYP2C9; [13]) [µM]	other results
CC(C)=CCC[C@](C)(O[C@@H]1O[C@H](CO[C@@H]2O[C@@H](CO)[C@H](O)[C@H]2O)[C@@H](O)[C@H](O)[C@H]1O)[C@H]1CC[C@]2(C)[C@@H]1[C@H](O)C[C@@H]1[C@@]3(C)CC[C@H](O[C@@H]4O[C@H](CO)[C@@H](O)[C@H](O)[C@H]4O[C@@H]4O[C@H](CO)[C@@H](O)[C@H](O)[C@H]4O)C(C)(C)[C@@H]3CC[C@]12C [Compound D3, Ginsenoside Rc]	0.0933	0.0378 ± 0.0102	0.877 ± 0.0395	6.29 ± 3.17	0.00967	10.48 ± 1.31%	0.0112 ± 0.0012	> 100	> 100	–	–	–	detection in bile ([3]; rat bile, Kang-Ai injection 6 mL/kg iv): not detected in bile; IC50 towards CYP2C9 (CYP2C9; recombinant isozyme, mean ± SD of triplicate, unit not given (IC50 classes in μM)): Activation
CC(C)=CCC[C@](C)(O[C@@H]1O[C@H](CO)[C@@H](O)[C@H](O)[C@H]1O)[C@H]1CC[C@]2(C)[C@@H]1[C@H](O)C[C@@H]1[C@@]3(C)CC[C@H](O)C(C)(C)[C@@H]3[C@@H](O[C@@H]3O[C@H](CO)[C@@H](O)[C@H](O)[C@H]3O)C[C@]12C [Compound C6, Ginsenoside Rg1]	2.61	0.144 ± 0.0642	1.57 ± 0.175	1.2 ± 1.23	1.04	39.79 ± 5.88%	0.863 ± 0.0732	> 100	> 100	~60%	20.71 ± 3.62%	> 100	–
O=C1CCC[C@@H]2[C@H]3CCCN4CCC[C@@H](CN12)[C@@H]34 [Compound A1, Matrine]	0.0263	0.00985 ± 0.00247	–	4.33 ± 2.18	0.015	57.40% and 57.40 ± 4.88%	0.927 ± 0.0681	–	–	exceeded 90%	36.55% and 36.55 ± 4.24%	–	clearance ([1]; male, Sprague-Dawley, plasma, rat, Kang-Ai injection 6 mL/kg iv, read-out: CLtot, p (converted)): 1.58 mL/h/kg; Vd ([1]; male, Sprague-Dawley, plasma, rat, Kang-Ai injection 6 mL/kg iv, read-out: VSS (Vd)): 0.00985 L/kg; AUC(0-t) ([1]; male, Sprague-Dawley, rat, plasma, iv, 6 mL/kg, rat plasma, 30-min iv infusion of Kang-Ai injection 6 mL/kg, unit per footnote # for matrine and oxymatrine, read-out: AUC0–12h): 68.6 ± 9.85 µM·h; Cmax ([1]; male, Sprague-Dawley, rat plasma, 30-min iv infusion of Kang-Ai injection 6 mL/kg, unit per footnote # for matrine and oxymatrine, read-out: Cmax): 15.1 ± 3.58 µM; IC50 (CYP1A2): > 100 µM; IC50 (CYP2C9): > 100 µM; IC50 (CYP2C19): > 100 µM
CC(C)=CCC[C@](C)(O)[C@H]1CC[C@]2(C)[C@@H]1[C@H](O)C[C@@H]1[C@@]3(C)CC[C@H](O)C(C)(C)[C@@H]3[C@@H](O[C@@H]3O[C@H](CO)[C@@H](O)[C@H](O)[C@H]3O[C@@H]3O[C@H](CO)[C@@H](O)[C@H](O)[C@H]3O)C[C@]12C [Compound C7, Ginsenoside Rf]	–	–	–	–	0.322	17.77 ± 3.90%	–	> 100	> 100	–	13.12 ± 1.68%	> 100	Cmax [1, 14]: 0.943 ± 0.172 µM; clearance [1, 14]: 1.82 mL/min; half-life [1, 14]: 0.63 ± 0.31 h; fraction unbound at 24 h ([4]; rat, plasma): 0.602 ± 0.0701
O=C1CCC[C@@H]2[C@H]3CCC[N+]4([O-])CCC[C@@H](CN12)[C@@H]34 (stereo partly shown) [Compound A3, Oxymatrine]	–	–	–	–	–	–	–	–	–	–	–	–	Cmax [1, 14]: 423 ± 55.5 µM; Vd [1, 14]: 0.22 L/kg; clearance [1, 14]: 1.86 mL/min/kg and 1.86 mL/min; half-life [1, 14]: 2.73 ± 1.16 h; CL renal ([2]; in vivo, iv): 1.18 mL/min; CLB (hepatobiliary clearance) [3, 14]: 31.95 ± 4.76 mL/h; fraction unbound at 24 h ([4]; rat, plasma): 0.932 ± 0.0652; IC50 (CYP1A2): > 100 µM; IC50 (CYP2C9; IC50 towards CYP2C9, recombinant isozyme, mean ± SD of triplicate, unit not given (IC50 classes in μM)): > 100 µM; IC50 (CYP2C19): > 100 µM
CC(C)=CCC[C@](C)(O[C@@H]1O[C@H](CO)[C@@H](O)[C@H](O)[C@H]1O)[C@H]1CC[C@]2(C)[C@@H]1[C@H](O)C[C@@H]1[C@@]3(C)CC[C@H](O[C@@H]4O[C@H](CO)[C@@H](O)[C@H](O)[C@H]4O[C@@H]4O[C@H](CO)[C@@H](O)[C@H](O)[C@H]4O)C(C)(C)[C@@H]3CC[C@]12C [Compound D2, Ginsenoside Rd]	0.0972	–	0.766 ± 0.0579	5.84 ± 3.13	0.0185	19.00 ± 5.33%	0.0075 ± 0.0008	> 100	> 100	about 25%	5.55% and 5.55 ± 1.02%	> 100	Vd ([1]; male, Sprague-Dawley, plasma, rat, 30-min iv infusion of Kang-Ai injection 6 mL/kg, Table 1 unit): 0.0357 ± 0.0114 L/kg
CC(C)(O)[C@@H]1CC[C@](C)([C@H]2[C@@H](O)C[C@@]3(C)[C@@H]4C[C@H](O[C@@H]5O[C@H](CO)[C@@H](O)[C@H](O)[C@H]5O)[C@H]5C(C)(C)[C@@H](O[C@@H]6OC[C@@H](O)[C@H](O)[C@H]6O)CC[C@@]56C[C@@]46CC[C@]23C)O1 [Compound B2, Astragaloside IV]	–	–	–	–	–	–	–	> 100	> 100	about 25%	–	–	t1/2 ([1]; rat plasma, 30-min iv infusion of Kang-Ai injection 6 mL/kg): 1.64 ± 0.26 h; Cmax ([1]; rat plasma, 30-min iv infusion of Kang-Ai injection 6 mL/kg, read-out: Cmax): 2.36 ± 0.252 µM; VSS (Vd) ([1]; rat, Kang-Ai injection 6 mL/kg iv): < 0.1 L/kg; bound in rat plasma ([4]; rat plasma, equilibrium dialysis): ~90%; fu-plasma (unbound fraction) ([4]; rat plasma, equilibrium dialysis 24 h, 37 °C, 2 μmol/L alkaloids, 4 μmol/L saponins): 12.35 ± 1.02%; inhibition type (smallest AIC and SC) (CYP2C9; CYP2C9): Noncompetitive inhibition; Ki (CYP2C9; CYP2C9, competitive model): 17.4 ± 3.7 µM; Ki (CYP2C9; CYP2C9, mixed-type model): 45 ± 16.6 µM; α (CYP2C9; CYP2C9, mixed-type model): 1.5 ± 1.0; Ki (CYP2C9; CYP2C9, noncompetitive model): 55.8 ± 5.3 µM; Cmax/Ki ([I]/Ki) (CYP2C9; CYP2C9, selected model, rat plasma Cmax): 0.04; IC50 (CYP2C9; tolbutamide 200 μM, read-out: IC50 towards CYP2C9): 65 µM
